Data as given in patent publication US20240199616A1, “BICYCLIC COMPOUNDS AS ALLOSTERIC SHP2 INHIBITORS” (Revolution Medicines, Inc., priority 2017, published 2024).

Molecular target: SHP2 (Homo sapiens (Human), UniProt Q06124)
Experiment: SHP2 allosteric inhibition assay (DiFMUP prompt fluorescence)
Format: biochemical
Settings: 0.2 nM SHP2 incubated with 0.5 μM Activating Peptide 1 or 2, 30-60 min at 25° C., surrogate substrate DiFMUP, kinetic read
Text: Without wishing to be bound by theory, SHP is allosterically activated through binding of bis-tyrosyl-phosphorylated peptides to its Src Homology 2 (SH2) domains. The latter activation step leads to the release of the auto-inhibitory interface of SHP2, which in turn renders the SHP2 protein tyrosine phosphatase (PTP) active and available for substrate recognition and reaction catalysis. The catalytic activity of SHP2 was monitored using the surrogate substrate DiFMUP in a prompt fluorescence assay format.
The phosphatase reactions were performed at room temperature in 96-well black polystyrene plate, flat bottom, non-binding surface (Corning, Cat #3650) using a final reaction volume of 100 μL and the following assay buffer conditions: 50 mM HEPES, pH 7.2, 100 mM NaCl, 0.5 mM EDTA, 0.05% P-20, 1 mM DTT.
The inhibition of SHP2 by compounds of the disclosure (concentrations varying from 0.00005-10 μM) was monitored using an assay in which 0.2 nM of SHP2 was incubated with 0.5 μM of Activating Peptide 1 (sequence: H2N-LN(pY)IDLDLV(dPEG8)LST(pY)ASINFQK-amide) or Activating Peptide 2 (sequence: H2N-LN(pY)AQLWHA(dPEG8)LTI(pY)ATIRRF-amide). […]

Chain of SHP2 (Q06124 whole entry): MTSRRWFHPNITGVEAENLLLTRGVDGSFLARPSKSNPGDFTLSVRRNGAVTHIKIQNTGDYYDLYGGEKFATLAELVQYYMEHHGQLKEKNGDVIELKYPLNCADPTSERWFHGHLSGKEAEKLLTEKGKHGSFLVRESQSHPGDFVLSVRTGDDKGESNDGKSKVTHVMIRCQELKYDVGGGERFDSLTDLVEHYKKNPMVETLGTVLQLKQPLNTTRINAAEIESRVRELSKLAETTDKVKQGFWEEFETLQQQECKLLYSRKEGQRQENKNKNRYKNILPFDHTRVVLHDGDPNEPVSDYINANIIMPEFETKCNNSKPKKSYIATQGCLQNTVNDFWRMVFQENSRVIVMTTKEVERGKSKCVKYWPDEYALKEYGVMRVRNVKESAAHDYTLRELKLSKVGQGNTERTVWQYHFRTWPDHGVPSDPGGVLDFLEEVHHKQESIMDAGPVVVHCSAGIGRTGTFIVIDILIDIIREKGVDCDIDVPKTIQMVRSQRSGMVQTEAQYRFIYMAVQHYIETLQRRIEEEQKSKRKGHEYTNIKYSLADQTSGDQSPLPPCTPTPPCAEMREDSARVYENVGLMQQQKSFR

Cc1nc(N2CCC3(CCC[C@H]3N)CC2)c2cncn2c1-c1cccc(Cl)c1Cl [Compound 3, (1R)-8-[5-(2,3-dichlorophenyl)-6-methylimidazo[1,5-a]pyrazin-8-yl]-8-azaspiro[4.5]decan-1-amine]
IC50: 34 nM
